According to patent US20240261279A1, “METHOD FOR TREATING LUNG CANCER” (priority 2021, published 2024):

Tested on: nuclear protein kinase C-δ
Experiment: confocal-based high-content screening measuring the quantity of nuclear protein kinase C-δ in GR10 cells
Type: cell-based
Details: 24 hours treatment, fluorescence intensity (FIG. 3)
From the text: Please refer to FIG. 1. […] To investigate the growth-inhibiting effect of the nuclear protein kinase C-δ inhibitor of the present disclosure on the non-small-cell lung cancer cells resistant to the epidermal growth factor receptor-tyrosine kinase inhibitor, the present experimental example utilizes the screening system shown in FIG. 1 to measure whether the nuclear protein kinase C-δ inhibitor of the present disclosure can inhibit the production of nuclear protein kinase C-δ in the cancer cells.
In the present experimental example, gefitinib-resistant non-small-cell lung cancer cells (gefitinib-resistant 10 cells, hereinafter “GR10 cells”) are used as the cell model. In Example 1 to Example 4, GR10 cells are respectively treated with nintedanib esylate (hereinafter “Nin”), ponatinib (hereinafter “Pon”), regorafenib (hereinafter “Reg”) or cobimetinib (hereinafter “Cob”) for 24 hours, and the quantity of nuclear protein kinase C-δ within the GR10 cells is determined by confocal-based high-content image analysis. On the other hand, the present experimental example further includes Comparative Example 1 and Comparative Example 2. […]
Please refer to FIG. 2A to FIG. 2F and FIG. 3. […] FIG. 3 is a comparative diagram of fluorescence intensity of the GR10 cells after treatment of Example 1 to Example 4, Comparative Example 1 and Comparative Example 2. […]

## Cc1ccc(C(=O)Nc2ccc(CN3CCN(C)CC3)c(C(F)(F)F)c2)cc1C#Cc1cnc2cccnn12 [Pon, ponatinib]
  concentration at which a great ability to inhibit nuclear protein kinase C-δ is performed: greater than 0.1 μM
